Among the data in the METLIN SMRT retention time set (Domingo-Almenara et al. 2019) are RP-LC retention time values, retold here.

The data set in a line: gradient 5% acetonitrile 3 min, to 50% in 2 min, to 85% in 15 min, held 3 min, 100 µL/min. Particulars: column: Zorbax Extend-C18 2.1 x 50 mm; eluents: water / acetonitrile, 0.1% formic acid. An outline of the steps:
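Mixtures of ~100 pure standards were chromatographed on a Zorbax Extend-C18 column (2.1 × 50 mm, 1.8 μm) at 100 μL/min using water and acetonitrile, each with 0.1% formic acid. Detection used a quadrupole time-of-flight mass spectrometer in positive and negative ionization mode, and data collection spanned 3 months. Retention time was obtained from adduct peaks picked computationally and each checked manually.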
Compound `N#Cc1ccsc1NC(=O)NC(c1ccccc1)c1ccccc1` returned an RP-LC retention time of 947 s. `CC(NC(=O)Cn1cnc2cc3c(cc21)OCCO3)c1ccc2c(c1)OCCCO2` (stereo not given) returned an RP-LC retention time of 646 s. Consider `COc1ccc(-c2nc(Cn3ccnc3C)no2)cc1`, for which the RP-LC retention time is 607 s. `O=C(c1cn2c(n1)COCC2)N(Cc1ccccc1)Cc1ccco1` registered an RP-LC retention time of 716 s. Compound `CC(=O)N1CCc2sc(C(=O)N3CCN(c4cc(C)ccc4C)CC3)cc2C1` displayed an RP-LC retention time of 904 s. On to `CC1CN(C(=O)CCC(=O)NCCCN2CCN(C3CCCCC3)CC2)c2ccccc2O1` (stereo not given), for which the RP-LC retention time amounted to 602 s.

`Cc1ccc(Nc2c(C(=O)N3CCC(C)CC3)cnc3nc(C)ccc23)c(C)c1` had an RP-LC retention time of 674 s. In turn, `COCCCNC(=O)c1ccc2nc(CCc3ccc(NC(C)=O)cc3)[nH]c2c1` had an RP-LC retention time of 567 s.

Compound `O=C(NCc1cc(F)cc(F)c1)C1CCN(c2ncnc3c2oc2ccccc23)CC1` had an RP-LC retention time of 752 s.

Take `Cc1cc(C)cc(NC(=O)C2CC(=O)N(c3n[nH]c4cccc(F)c34)C2)c1` (stereo not given): the RP-LC retention time was determined as 770 s. Regarding `CCOC(=O)c1cnn2c(C(F)(F)F)cc(-c3ccc(F)cc3)nc12`, the RP-LC retention time was 1110 s.

As for `CN1CCCCCC(O)c2cc(C(=O)NC3CCCCC3)ccc21` (stereo not given), the RP-LC retention time was determined as 654 s. `Cc1ccsc1C(=O)N1CCC(N2C[C@H](O)C[C@H]2C(=O)NC2CCCCC2)CC1` came in with an RP-LC retention time of 631 s. The value for `COC(=O)c1[nH]c2c(c1C)C(=O)CC(c1cccc(OC)c1)C2` (stereo not given) was 838 s; that for `COc1ccc(Cl)cc1N1CC(c2nc3ccccc3n2CC(=O)N2CCOCC2)CC1=O` (stereo not given) was 662 s. As to `COc1cccc(N2CCN(C(=O)C3CCN(C(=O)C4Sc5ccccc5NC4=O)CC3)CC2)c1` (stereo not given), the RP-LC retention time came out at 709 s. The value for `CCn1nc(C)c2ccnc(N3CCC(C(=O)N4CCN(c5cccc(OC)c5)CC4)CC3)c21` was 712 s; that for `CCn1c(C)c(CN2CCC(C(=O)NCc3cccc(Cl)c3)CC2)c2ccccc21` was 772 s; that for `CCOc1ccccc1NC(=O)Cn1c(C)nc2c(sc3nc(-c4ccccc4)ccc32)c1=O` was 1160 s. The value for `CC(C)n1ncc(NC(=O)Cc2ccc(Cl)cc2)c(N2CCOCC2)c1=O` was 856 s; that for `O=C(NCc1ccncc1)c1ccc(-c2cccs2)nc1` was 588 s; that for `CCC(C)N1C(=O)CN(C2CCCCCC2)C(=O)C1c1ccccc1F` (stereo not given) was 1020 s.

With `CCOC(=O)c1ccccc1NC(=O)N1CCSc2nc(C)cc(C)c21`, the RP-LC retention time worked out at 1000 s. The value for `O=C(Nc1ccc(Cl)c(Cl)c1)Nc1ccc([N+](=O)[O-])cn1` was 1100 s; that for `COc1ccc2c(c1)C1(CCN(C(=O)c3ccccc3Cl)C1)C(=O)N2` (stereo not given) was 708 s.

For the compound `CCc1nc2cc(-c3noc(-c4cccnc4SC)n3)ccc2o1`, the RP-LC retention time worked out at 1220 s. With `CCC(C)NC(=O)C1CCN(S(=O)(=O)c2cn(C(C)C)cn2)CC1` (stereo not given), the RP-LC retention time was found to be 669 s. In turn, `Cc1nc2ccn(Cc3cccs3)c(=O)c2cc1C(=O)NCC1CCCO1` (stereo not given) came in with an RP-LC retention time of 670 s. The value for `COCCCn1c(=O)c2ccccc2n(Cc2nc(-c3ccc(OC)cc3)no2)c1=O` was 968 s; that for `COC(=O)c1ccc2c(=O)n(Cc3ccc(OC)cc3)c(N3CCC(C)CC3)nc2c1` was 1330 s; that for `Cc1ccc(-c2csc3c(=O)n(CC(=O)OC(C)(C)C)cnc23)cc1` was 1090 s. As to `O=C(NC1CC1)C1CCN(S(=O)(=O)c2cc(-c3noc(C4CCC4)n3)cs2)CC1`, the RP-LC retention time is 878 s. The compound `CCn1cc(-c2nc(C(=O)NCc3cccc(F)c3)cs2)c2cccnc21` displayed an RP-LC retention time of 983 s. Compound `O=C(NCCc1ccccn1)C1CCc2nc(N3CCOCC3)ncc2C1` (stereo not given) registered an RP-LC retention time of 645 s.

In the case of `O=C(Cn1c(=O)c2cccn2c2ccc(F)cc21)NCCCN1CCCCCC1`, the RP-LC retention time came to 627 s.

`CCn1cc(S(=O)(=O)Nc2ccc(C)c(C)c2)c2cccnc21`: the RP-LC retention time is 887 s.

`CN(C1CCc2nn(CC3CC3)c(=O)n2CC1)S(=O)(=O)c1ccccc1F` (stereo not given): the RP-LC retention time was 706 s. Consider `O=C(Nc1ccc(OCC(=O)N2CCN(c3ccccc3F)CC2)nc1)C1CC1`, for which the RP-LC retention time was 648 s. `COc1ccc(-c2c(C)noc2NC(C)=O)cc1S(=O)(=O)NCC(C)c1ccccc1` (stereo not given) showed an RP-LC retention time of 838 s.

Compound `Cc1ccc2c(c1)N(S(C)(=O)=O)CCC(C(=O)Nc1ccc(C)c(C)c1)O2` (stereo not given) registered an RP-LC retention time of 912 s. `NC(=O)C1CCN(C(=O)c2ccc(Cn3c(=O)c4cccn4c4cccnc43)cc2)CC1` registered an RP-LC retention time of 655 s.

The compound `CCOC(=O)c1ccc(CNC(=O)N2CCC(c3nc4ccncc4n3C)C2)cc1` (stereo not given) came in with an RP-LC retention time of 557 s.

`Cn1c(=O)c(N2CCCC(C(=O)NCCCN3CCC(N4CCCCC4)CC3)C2)nc2cccnc21` (stereo not given): the RP-LC retention time stood at 568 s. With `CCN1CCCCc2cc(C(=O)NC(C)(C)C)sc21`, the RP-LC retention time turned out to be 1080 s.

Regarding `Cc1cccc(N(C)C(=O)C2CCCN2S(=O)(=O)c2cc3c(cc2C)NC(=O)CO3)c1` (stereo not given), the RP-LC retention time was determined as 776 s.

In turn, `N#CCCN(c1ccc(C=O)cc1)S(=O)(=O)c1ccccc1` showed an RP-LC retention time of 770 s.

Turning to `CCc1nc2cc(-c3noc(-c4sc(C)nc4C)n3)ccc2o1`, the RP-LC retention time stood at 1060 s. Then `CCn1c(-c2cccc(C(=O)NC3CCCCC3)c2)nc2cccnc21`, with 780 s; and `CCN(CC)CCCNC(=O)c1ccc(-c2ccc3c(c2)CCN3C(C)=O)cc1`, with 612 s; and `CCCNC(=O)c1ccc2c(=O)n(Cc3ccccc3)c(N(CC)CC)nc2c1`, with 997 s.

The compound `CCOc1ccccc1NC(=O)C(=O)NCCc1ccsc1` came in with an RP-LC retention time of 1020 s. Then `COc1ccc(-c2nc3n(n2)C2(CCCCC2)[C@@H]2CCCC[C@@H]2N3C(=O)c2cccs2)cc1`, with 1270 s; and `Cc1cccc(-c2noc(C3CCCN3S(=O)(=O)c3c(C)cc(C)cc3C)n2)c1` (stereo not given), with 1340 s; and `O=C1[C@H]2CN(Cc3ccccc3Cl)C[C@H]2C(=O)N1Cc1ccc2c(c1)OCO2`, with 930 s.

Turning to `Cc1ccc(-c2nc3ccc(C)cn3c2NC(=O)c2ccc(Cl)cc2)cc1`, the RP-LC retention time came out at 763 s.

Regarding `O=C(Cc1cccs1)N1CCCC1c1nc(-c2cccc(Cl)c2)no1` (stereo not given), the RP-LC retention time was found to be 1050 s.

In turn, `COc1ccc(-n2cc(C(=O)OCc3ccco3)c3ccccc3c2=O)cc1` displayed an RP-LC retention time of 970 s.

As to `CCOc1ccc(NC(=O)Cn2c(N)nc(C)cc2=O)cc1`, the RP-LC retention time worked out at 574 s.

For the compound `O=C(Cn1cccc1-c1nc(-c2ccc(Cl)cc2)cs1)NCCCN1CCOCC1`, the RP-LC retention time amounted to 612 s. The compound `COc1cc(CNS(=O)(=O)c2cn(C(C)C)c3ncccc23)cc(OC)c1` displayed an RP-LC retention time of 859 s.

Compound `COC(=O)CNC(=O)NC(C)C(=O)N1CCc2ccccc21` (stereo not given) displayed an RP-LC retention time of 662 s.

The compound `CCCS(=O)(=O)N1CCC(c2noc(-c3ccncc3)n2)C1` (stereo not given) gave an RP-LC retention time of 751 s.

Consider `CC(CNC(=O)c1cc2sc(Cl)cc2n1C)c1ccccc1` (stereo not given), for which the RP-LC retention time turned out to be 1110 s.

`O=C(Cc1nnc(-c2ccc3ncccc3c2)o1)Nc1ccc(OC(F)(F)F)cc1` registered an RP-LC retention time of 806 s. Regarding `COc1ccc(C2(CNC(=O)Cc3cccs3)CCOCC2)cc1`, the RP-LC retention time turned out to be 734 s.

`Cn1nccc1-c1cccc(-c2noc(-c3ccsc3)n2)c1` had an RP-LC retention time of 1020 s.

The compound `O=C(CN1C(=O)C(C(=O)N2CCCC2)Sc2ccccc21)N1CCN(c2ccccc2)CC1` (stereo not given) yielded an RP-LC retention time of 842 s.

As to `CCCCN1CCN(S(=O)(=O)c2cc(-c3nnc(C(C)C)o3)co2)CC1`, the RP-LC retention time came out at 652 s.

In turn, `O=C(NCc1ccc(Cl)cc1)C1CCN(c2cnc3nccnc3c2)CC1` returned an RP-LC retention time of 713 s. Consider `O=C(O)c1cc(-c2cccs2)n(C2CCS(=O)(=O)C2)n1` (stereo not given), for which the RP-LC retention time came to 630 s. Take `Cc1ccccc1NC(=O)N1C[C@@H]2C[C@H](NC(=O)c3cccs3)[C@H]1C2`: the RP-LC retention time is 706 s. `Cc1ccc(Nc2c(-c3ccc(N4CCOCC4)cc3)nc3cccc(C)n23)cc1` came in with an RP-LC retention time of 746 s. On to `COc1cccc(NC(=O)N2CCC3(CC2)NC(=O)c2cc(Cl)ccc2N3C)c1`, for which the RP-LC retention time came out at 780 s. Regarding `Cc1ccc(NC(=O)Cn2nc3nc(N4CCCC(C)C4)ccn3c2=O)cc1C` (stereo not given), the RP-LC retention time came out at 826 s. Then `O=C(c1ccc2nccnc2c1)N1CCC(c2nnc(C(F)(F)F)o2)CC1`, with 653 s; and `Cc1noc(C2CN(C(=O)Nc3ccc4c(c3)CCC4)CC23CCOCC3)n1` (stereo not given), with 777 s. As to `O=C(CN1CCCCC1c1nc(C2CC2)no1)Nc1ccccn1` (stereo not given), the RP-LC retention time is 734 s.

For the compound `CNC(=O)c1cnn(-c2cccc(C)c2)c1-n1cccc1`, the RP-LC retention time turned out to be 804 s. `COC(=O)c1ccc(NC(=O)C(=O)NCCOc2ccc(F)cc2)cc1` yielded an RP-LC retention time of 870 s.

Regarding `COc1ccc(NC(=O)C2CCCN(c3nc4ccccc4nc3C(F)(F)F)C2)cc1OC` (stereo not given), the RP-LC retention time is 1060 s.
